Results reported in ChEMBL document CHEMBL5120978, “Application of Compositions Comprising a KRAS G12C Inhibitor and an EGFR Inhibitor for the Potential Treatment of Cancer” (2022).

Columns and labels:
Assay type in all cases: functional
[1] = Anti-tumor activity against human PDX CR6256 cells xenografted with nude BALB/c mouse assessed as inhibition of tumor growth inhibition at 30 mg/kg, po QD for 21 days co-treated with 20 mg/kg, ip QD Cetuximab relative to control; details: PDX CR6256, 504 h, time 21 day, read-out: TGI
NCI-H2122 [2] = assay: Anti-tumor activity against human NCI-H2122 cells xenografted with nude mouse assessed as inhibition of tumor growth inhibition at 50 mg/kg, po QD for 21 days relative to control; details: NCI-H2122, 504 h, time 21 day, read-out: TGI
NCI-H2122 [3] = assay: Anti-tumor activity against human NCI-H2122 cells xenografted with nude mouse assessed as inhibition of tumor growth inhibition at 50 mg/kg, po QD for 21 days co-treated with 50 mg/kg, po QD Erlotinib relative to control; details: NCI-H2122, 504 h, time 21 day, read-out: TGI

Row | SMILES | inhibition in vivo at 30 mg/kg [1] [%] | inhibition in vivo at 50 mg/kg (NCI-H2122 [2]) [%] | inhibition in vivo at 50 mg/kg (NCI-H2122 [3]) [%]
1 | C=CC(=O)N1CCN(c2nc(OC[C@@H]3CCCN3C)nc3c(F)c(-c4nc(N)cc(C)c4C(F)(F)F)c(Cl)cc23)[C@@H](C)C1 [DIVARASIB] | 133 | 93 | 117
2 | C#Cc1cccc(Nc2ncnc3cc(OCCOC)c(OCCOC)cc23)c1 [ERLOTINIB] |  | 48 | 
